Data: PubChem BioAssay (NCI)
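In this assay, cells in 96-well plates receive the compound at five concentrations for 48 hours. Endpoints are linearly interpolated between the surrounding concentrations. The concentration for 50% growth inhibition is given as GI50. TGI: total growth inhibition.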

Tests used:
Experiment in all cases: NCI anticancer screen, dose series, 48 h
SW-620 colon = system: SW-620 colon
UACC-62 melanoma = system: UACC-62 melanoma
SK-OV-3 ovarian = system: SK-OV-3 ovarian
SR leukemia = system: SR leukemia
NCI-H522 lung = system: NCI-H522 lung
TK-10 renal = system: TK-10 renal
CAKI-1 renal = system: CAKI-1 renal
A498 renal = system: A498 renal
RPMI-8226 leukemia = system: RPMI-8226 leukemia
SK-MEL-28 melanoma = system: SK-MEL-28 melanoma
RXF 393 renal = system: RXF 393 renal
HOP-92 NSCLC = system: HOP-92 NSCLC
UO-31 renal = system: UO-31 renal
NCI-H460 lung = system: NCI-H460 lung
SF-539 CNS = system: SF-539 CNS
MALME-3M melanoma = system: MALME-3M melanoma
HL-60(TB) leukemia = system: HL-60(TB) leukemia
SNB-19 CNS = system: SNB-19 CNS
IGROV1 ovarian = system: IGROV1 ovarian
MDA-MB-231 breast = system: MDA-MB-231 breast
SNB-75 CNS = system: SNB-75 CNS
SK-MEL-5 melanoma = system: SK-MEL-5 melanoma
SF-295 CNS = system: SF-295 CNS
HS 578T breast = system: HS 578T breast
HT29 colon = system: HT29 colon
MDA-MB-435 = system: MDA-MB-435
OVCAR-4 ovarian = system: OVCAR-4 ovarian
MOLT-4 leukemia = system: MOLT-4 leukemia
PC-3 prostate = system: PC-3 prostate
UACC-257 melanoma = system: UACC-257 melanoma
A549 NSCLC = system: A549 NSCLC
U251 CNS = system: U251 CNS
OVCAR-5 ovarian = system: OVCAR-5 ovarian
SF-268 CNS = system: SF-268 CNS
KM12 colon = system: KM12 colon
ACHN renal = system: ACHN renal
SN12C renal = system: SN12C renal
COLO 205 colon = system: COLO 205 colon
CCRF-CEM leukemia = system: CCRF-CEM leukemia
SK-MEL-2 melanoma = system: SK-MEL-2 melanoma
M14 melanoma = system: M14 melanoma
T-47D breast = system: T-47D breast
OVCAR-8 ovarian = system: OVCAR-8 ovarian
NCI-H226 lung = system: NCI-H226 lung
EKVX NSCLC = system: EKVX NSCLC
BT-549 breast = system: BT-549 breast
LOX IMVI melanoma = system: LOX IMVI melanoma
NCI/ADR-RES ovarian = system: NCI/ADR-RES ovarian
HCT-15 colon = system: HCT-15 colon
HCT-116 colon = system: HCT-116 colon
K-562 leukemia = system: K-562 leukemia
NCI-H23 lung = system: NCI-H23 lung
786-0 renal = system: 786-0 renal
HOP-62 NSCLC = system: HOP-62 NSCLC
DU-145 prostate = system: DU-145 prostate
HCC-2998 colon = system: HCC-2998 colon
MCF7 breast = system: MCF7 breast

COc1ccc(/C=N/Nc2ccnc3cc(Cl)ccc23)cc1Cl
GI50 (SW-620 colon): 1.9 µM | TGI (SW-620 colon): 3.76 µM | GI50 (UACC-62 melanoma): 1.76 µM | TGI (UACC-62 melanoma): 3.27 µM | GI50 (SK-OV-3 ovarian): 1.82 µM | TGI (SK-OV-3 ovarian): 3.27 µM | GI50 (SR leukemia): 0.707 µM | TGI (SR leukemia): 5.51 µM | GI50 (NCI-H522 lung): 1.69 µM | TGI (NCI-H522 lung): 3.3 µM | GI50 (TK-10 renal): 1.74 µM | TGI (TK-10 renal): 3.12 µM | GI50 (CAKI-1 renal): 1.68 µM | TGI (CAKI-1 renal): 3.1 µM | GI50 (A498 renal): 1.72 µM | TGI (A498 renal): 3.22 µM | GI50 (RPMI-8226 leukemia): 2.2 µM | TGI (RPMI-8226 leukemia): 5.24 µM | GI50 (SK-MEL-28 melanoma): 1.75 µM | TGI (SK-MEL-28 melanoma): 3.21 µM | GI50 (RXF 393 renal): 1.75 µM | TGI (RXF 393 renal): 3.21 µM | GI50 (HOP-92 NSCLC): 1.38 µM | TGI (HOP-92 NSCLC): 2.95 µM | GI50 (UO-31 renal): 1.68 µM | TGI (UO-31 renal): 3.1 µM | GI50 (NCI-H460 lung): 2.04 µM | TGI (NCI-H460 lung): 4.03 µM | GI50 (SF-539 CNS): 1.8 µM | TGI (SF-539 CNS): 3.26 µM | GI50 (MALME-3M melanoma): 1.9 µM | TGI (MALME-3M melanoma): 3.54 µM | GI50 (HL-60(TB) leukemia): 1.96 µM | TGI (HL-60(TB) leukemia): 4.79 µM | GI50 (SNB-19 CNS): 1.93 µM | TGI (SNB-19 CNS): 3.73 µM | GI50 (IGROV1 ovarian): 1.91 µM | TGI (IGROV1 ovarian): 3.71 µM | GI50 (MDA-MB-231 breast): 1.93 µM | TGI (MDA-MB-231 breast): 3.55 µM | GI50 (SNB-75 CNS): 1.55 µM | TGI (SNB-75 CNS): 3.06 µM | GI50 (SK-MEL-5 melanoma): 1.77 µM | TGI (SK-MEL-5 melanoma): 3.21 µM | GI50 (SF-295 CNS): 1.79 µM | TGI (SF-295 CNS): 3.36 µM | GI50 (HS 578T breast): 1.99 µM | TGI (HS 578T breast): 4.28 µM | GI50 (HT29 colon): 1.53 µM | TGI (HT29 colon): 3.01 µM | GI50 (MDA-MB-435): 1.79 µM | TGI (MDA-MB-435): 3.39 µM | GI50 (OVCAR-4 ovarian): 1.83 µM | TGI (OVCAR-4 ovarian): 3.56 µM | GI50 (MOLT-4 leukemia): 2.2 µM | TGI (MOLT-4 leukemia): 5.35 µM | GI50 (PC-3 prostate): 1.64 µM | TGI (PC-3 prostate): 3.12 µM | GI50 (UACC-257 melanoma): 1.69 µM | TGI (UACC-257 melanoma): 3.29 µM | GI50 (A549 NSCLC): 1.77 µM | TGI (A549 NSCLC): 3.57 µM | GI50 (U251 CNS): 1.74 µM | TGI (U251 CNS): 3.37 µM | GI50 (OVCAR-5 ovarian): 1.85 µM | TGI (OVCAR-5 ovarian): 3.49 µM | GI50 (SF-268 CNS): 1.9 µM | TGI (SF-268 CNS): 3.69 µM | GI50 (KM12 colon): 2.08 µM | TGI (KM12 colon): 4.32 µM | GI50 (ACHN renal): 1.95 µM | TGI (ACHN renal): 3.42 µM | GI50 (SN12C renal): 1.75 µM | TGI (SN12C renal): 3.44 µM | GI50 (COLO 205 colon): 1.82 µM | TGI (COLO 205 colon): 3.37 µM | GI50 (CCRF-CEM leukemia): 2.14 µM | TGI (CCRF-CEM leukemia): 5.93 µM | GI50 (SK-MEL-2 melanoma): 1.79 µM | TGI (SK-MEL-2 melanoma): 3.33 µM

CN1CCN(Cc2ccc(NC(=O)c3cncc(C#Cc4cnc5ccc(OCC(C)(C)O)nn45)c3)cc2C(F)(F)F)CC1
GI50 (SW-620 colon): 0.202 µM | TGI (SW-620 colon): 0.585 µM | GI50 (UACC-62 melanoma): 0.199 µM | TGI (UACC-62 melanoma): 0.843 µM | GI50 (SK-OV-3 ovarian): 0.378 µM | TGI (SK-OV-3 ovarian): 1.16 µM | GI50 (SR leukemia): 0.249 µM | TGI (SR leukemia): 0.852 µM | GI50 (M14 melanoma): 0.139 µM | TGI (M14 melanoma): 0.305 µM | GI50 (NCI-H522 lung): 0.179 µM | TGI (NCI-H522 lung): 0.37 µM | GI50 (TK-10 renal): 0.226 µM | TGI (TK-10 renal): 0.55 µM | GI50 (CAKI-1 renal): 0.183 µM | TGI (CAKI-1 renal): 0.528 µM | GI50 (A498 renal): 0.199 µM | TGI (A498 renal): 0.395 µM | GI50 (RPMI-8226 leukemia): 0.344 µM | TGI (RPMI-8226 leukemia): 1.38 µM | GI50 (SK-MEL-28 melanoma): 0.237 µM | TGI (SK-MEL-28 melanoma): 0.726 µM | GI50 (RXF 393 renal): 0.181 µM | TGI (RXF 393 renal): 0.392 µM | GI50 (HOP-92 NSCLC): 0.0385 µM | TGI (HOP-92 NSCLC): 0.225 µM | GI50 (UO-31 renal): 0.339 µM | TGI (UO-31 renal): 1.06 µM | GI50 (T-47D breast): 0.369 µM | TGI (T-47D breast): 1.91 µM | GI50 (NCI-H460 lung): 0.297 µM | TGI (NCI-H460 lung): 0.851 µM | GI50 (SF-539 CNS): 0.117 µM | TGI (SF-539 CNS): 0.403 µM | GI50 (OVCAR-8 ovarian): 0.304 µM | TGI (OVCAR-8 ovarian): 1.05 µM | GI50 (NCI-H226 lung): 0.148 µM | TGI (NCI-H226 lung): 1.34 µM | GI50 (EKVX NSCLC): 0.257 µM | TGI (EKVX NSCLC): 0.997 µM | GI50 (BT-549 breast): 0.386 µM | TGI (BT-549 breast): 1.22 µM | GI50 (MALME-3M melanoma): 0.127 µM | TGI (MALME-3M melanoma): 0.37 µM | GI50 (LOX IMVI melanoma): 0.146 µM | TGI (LOX IMVI melanoma): 0.3 µM | GI50 (HL-60(TB) leukemia): 0.264 µM | TGI (HL-60(TB) leukemia): 0.873 µM | GI50 (NCI/ADR-RES ovarian): 1.64 µM | TGI (NCI/ADR-RES ovarian): 4.68 µM | GI50 (SNB-19 CNS): 0.356 µM | TGI (SNB-19 CNS): 1.36 µM | GI50 (HCT-15 colon): 0.287 µM | TGI (HCT-15 colon): 0.929 µM | GI50 (IGROV1 ovarian): 0.167 µM | TGI (IGROV1 ovarian): 1.06 µM | GI50 (MDA-MB-231 breast): 0.114 µM | TGI (MDA-MB-231 breast): 0.548 µM | GI50 (SNB-75 CNS): 0.21 µM | TGI (SNB-75 CNS): 0.572 µM | GI50 (HCT-116 colon): 0.17 µM | TGI (HCT-116 colon): 0.889 µM | GI50 (SK-MEL-5 melanoma): 0.775 µM | TGI (SK-MEL-5 melanoma): 2.05 µM | GI50 (SF-295 CNS): 0.726 µM | TGI (SF-295 CNS): 2.06 µM | GI50 (HS 578T breast): 0.156 µM | TGI (HS 578T breast): 0.578 µM | TGI (K-562 leukemia): 1.85 µM | GI50 (HT29 colon): 0.203 µM | TGI (HT29 colon): 0.91 µM | GI50 (NCI-H23 lung): 0.185 µM | TGI (NCI-H23 lung): 0.478 µM | GI50 (786-0 renal): 0.323 µM | TGI (786-0 renal): 0.96 µM | GI50 (MDA-MB-435): 0.207 µM | TGI (MDA-MB-435): 0.698 µM | GI50 (OVCAR-4 ovarian): 0.217 µM | TGI (OVCAR-4 ovarian): 1.04 µM | GI50 (MOLT-4 leukemia): 0.269 µM | TGI (MOLT-4 leukemia): 1.41 µM | GI50 (HOP-62 NSCLC): 0.23 µM | TGI (HOP-62 NSCLC): 0.667 µM | GI50 (DU-145 prostate): 0.26 µM | TGI (DU-145 prostate): 0.786 µM | GI50 (PC-3 prostate): 0.332 µM | TGI (PC-3 prostate): 1.75 µM | GI50 (UACC-257 melanoma): 0.318 µM | TGI (UACC-257 melanoma): 1.2 µM | GI50 (A549 NSCLC): 0.317 µM | TGI (A549 NSCLC): 1.09 µM | GI50 (U251 CNS): 0.329 µM | TGI (U251 CNS): 1.12 µM | GI50 (HCC-2998 colon): 0.334 µM | TGI (HCC-2998 colon): 1.02 µM | GI50 (OVCAR-5 ovarian): 0.295 µM | TGI (OVCAR-5 ovarian): 1.2 µM | GI50 (SF-268 CNS): 0.18 µM | TGI (SF-268 CNS): 0.448 µM | TGI (KM12 colon): 0.83 µM | GI50 (ACHN renal): 0.295 µM | TGI (ACHN renal): 1.06 µM | GI50 (SN12C renal): 0.153 µM | TGI (SN12C renal): 0.864 µM | GI50 (COLO 205 colon): 0.178 µM | TGI (COLO 205 colon): 0.349 µM | GI50 (CCRF-CEM leukemia): 0.336 µM | TGI (CCRF-CEM leukemia): 12.5 µM | GI50 (SK-MEL-2 melanoma): 0.177 µM | TGI (SK-MEL-2 melanoma): 0.349 µM | GI50 (MCF7 breast): 0.146 µM | TGI (MCF7 breast): 0.897 µM
